According to PubChem BioAssay AID248 (DTP/NCI, 2004):
Values joined by “and” are separate entries in the source; they are usually repeats but may differ in a detail not shown here. Equal values may be shown once. Inconclusive results and toxic doses are left out. No stated cut-off is given here; in the data, active means T/C of 150% or more; inactive means T/C below 125%.

Test system: L1210 leukemia ip in BDF1 mice, survival T/C
Assay: NCI In Vivo Anticancer Drug Screen. Data for tumor model L1210 Leukemia (intraperitoneal) in B6D2F1 (BDF1) mice
Conditions: endpoint: mean survival time, higher = longer survival
Outline: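 Survival endpoint. Drug-treated group vs vehicle group, expressed as T divided by C. Tumor passaged by transplantation.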

[1] = dose: 100.0 mg/kg/injection, schedule: Q04DX003 (ip), vehicle: Klucel (hydroxypropylcellulose) (HPC)
[2] = dose: 200.0 mg/kg/injection, schedule: Q04DX003 (ip), vehicle: Klucel (hydroxypropylcellulose) (HPC)
[3] = dose: 100.0 mg/kg/injection, schedule: Q01DX001 (ip), vehicle: carboxymethylcellulose (CMC)
[4] = dose: 200.0 mg/kg/injection, schedule: Q01DX001 (ip), vehicle: carboxymethylcellulose (CMC)
[5] = dose: 400.0 mg/kg/injection, schedule: Q01DX001 (ip), vehicle: carboxymethylcellulose (CMC)
[6] = dose: 100.0 mg/kg/injection, schedule: Q01DX001 (ip), vehicle: Klucel (hydroxypropylcellulose) (HPC)
[7] = dose: 200.0 mg/kg/injection, schedule: Q01DX001 (ip), vehicle: Klucel (hydroxypropylcellulose) (HPC)
[8] = dose: 100.0 mg/kg/injection, schedule: Q04DX003 (ip), vehicle: saline
[9] = dose: 200.0 mg/kg/injection, schedule: Q04DX003 (ip), vehicle: saline
[10] = dose: 100.0 mg/kg/injection, schedule: Q04DX002 (ip), vehicle: saline with Tween-80
[11] = dose: 200.0 mg/kg/injection, schedule: Q04DX002 (ip), vehicle: saline with Tween-80
[12] = dose: 100.0 mg/kg/injection, schedule: Q04DX002 (ip), vehicle: Klucel (hydroxypropylcellulose) (HPC)
[13] = dose: 200.0 mg/kg/injection, schedule: Q04DX002 (ip), vehicle: Klucel (hydroxypropylcellulose) (HPC)
[14] = dose: 400.0 mg/kg/injection, schedule: Q04DX002 (ip), vehicle: Klucel (hydroxypropylcellulose) (HPC)
[15] = dose: 50.0 mg/kg/injection, schedule: Q01DX009 (ip), vehicle: saline with Tween-80
[16] = dose: 100.0 mg/kg/injection, schedule: Q01DX009 (ip), vehicle: saline with Tween-80
[17] = dose: 200.0 mg/kg/injection, schedule: Q01DX009 (ip), vehicle: saline with Tween-80

Measured: T/C

CCCCCCCCCCC(CCCCCCC)(CCCCCCCC)CCCCCCCCC (stereo unspecified)
inactive: dose: 133.0 mg/kg/injection, schedule: Q01DX001 (ip), vehicle: saline with Tween-80 102 % of control | dose: 200.0 mg/kg/injection, schedule: Q01DX001 (ip), vehicle: saline with Tween-80 107 % of control | dose: 300.0 mg/kg/injection, schedule: Q01DX001 (ip), vehicle: saline with Tween-80 102 % of control | dose: 400.0 mg/kg/injection, schedule: Q01DX001 (ip), vehicle: saline with Tween-80 101 % of control

Clc1ccc2nccnc2c1
inactive: [1] 97 % of control | [2] 107 % of control

CC[N+](C)(CC)CCC[n+]1c(-c2ccccc2)c2cc(N)ccc2c2ccc(N)cc21
inactive: dose: 1.56 mg/kg/injection, schedule: Q01DX009 (ip), vehicle: saline 104 % of control | dose: 1.56 mg/kg/injection, schedule: Q04DX003 (ip), vehicle: saline 100 % of control | dose: 3.12 mg/kg/injection, schedule: Q01DX009 (ip), vehicle: saline 109 % of control and 110 % of control | dose: 3.12 mg/kg/injection, schedule: Q04DX003 (ip), vehicle: saline 109 % of control | dose: 6.25 mg/kg/injection, schedule: Q01DX009 (ip), vehicle: saline 100 % of control and 110 % of control | dose: 6.25 mg/kg/injection, schedule: Q04DX003 (ip), vehicle: saline 112 % of control | dose: 6.25 mg/kg/injection, schedule: Q04DX003 (ip), vehicle: water 98 % of control | dose: 12.5 mg/kg/injection, schedule: Q04DX003 (ip), vehicle: water 93 % of control

OCCCc1cc(Cl)ccc1O
inactive: dose: 50.0 mg/kg/injection, schedule: Q01DX001 (ip), vehicle: carboxymethylcellulose (CMC) 100 % of control | [3] 100 % of control | [4] 94 % of control | [5] 92 % of control

CCCCCCCCCCCCCCCCOc1c(Br)cc(Br)cc1Br
inactive: [6] 87 % of control | [7] 90 % of control | dose: 400.0 mg/kg/injection, schedule: Q01DX001 (ip), vehicle: Klucel (hydroxypropylcellulose) (HPC) 105 % of control

CCn1c(C)[n+](CCCOS(=O)(=O)[O-])c2ccccc21
inactive: [8] 97 % of control | [9] 106 % of control

CNN
inactive: dose: 20.0 mg/kg/injection, schedule: Q04DX003 (ip), vehicle: saline 101 % of control | dose: 25.0 mg/kg/injection, schedule: Q01DX009 (ip), vehicle: saline 103 % of control | dose: 40.0 mg/kg/injection, schedule: Q04DX003 (ip), vehicle: saline 121 % of control | dose: 80.0 mg/kg/injection, schedule: Q04DX003 (ip), vehicle: saline 111 % of control | [8] 96 % of control

Cc1ccc(COP(=O)(c2ccccc2)c2ccccc2)cc1
inactive: dose: 66.0 mg/kg/injection, schedule: Q01DX001 (ip), vehicle: Klucel (hydroxypropylcellulose) (HPC) 98 % of control | [6] 93 % of control | dose: 150.0 mg/kg/injection, schedule: Q01DX001 (ip), vehicle: Klucel (hydroxypropylcellulose) (HPC) 97 % of control | [7] 91 % of control

O=C(O)c1cccc(S)c1
inactive: [10] 113 % of control | [11] 113 % of control

CC(=O)N1CCOCC1
inactive: [8] 93 % of control | [9] 98 % of control | dose: 400.0 mg/kg/injection, schedule: Q04DX003 (ip), vehicle: saline 102 % of control

CCN1/C(=C\c2ccc3cc(OC)ccc3[n+]2CC)[Se]c2ccc(OC)cc21
inactive: dose: 1.0 mg/kg/injection, schedule: Q01DX001 (ip), vehicle: other 98 % of control | dose: 2.0 mg/kg/injection, schedule: Q01DX001 (ip), vehicle: other 103 % of control | dose: 4.0 mg/kg/injection, schedule: Q01DX001 (ip), vehicle: other 103 % of control

O=C(NC/C(Br)=C/Br)Nc1cccc2ccccc12
inactive: [10] 97 % of control | [11] 90 % of control | dose: 400.0 mg/kg/injection, schedule: Q04DX002 (ip), vehicle: saline with Tween-80 97 % of control

O=C(NC/C(Cl)=C/Cl)Oc1cccc2ccccc12
inactive: dose: 75.0 mg/kg/injection, schedule: Q01DX009 (ip), vehicle: Klucel (hydroxypropylcellulose) (HPC) 107 % of control | dose: 150.0 mg/kg/injection, schedule: Q01DX009 (ip), vehicle: Klucel (hydroxypropylcellulose) (HPC) 104 % of control | dose: 300.0 mg/kg/injection, schedule: Q01DX009 (ip), vehicle: Klucel (hydroxypropylcellulose) (HPC) 98 % of control

CC(=O)OCC(CS(=O)c1c(Cl)c(Cl)c(Cl)c(Cl)c1Cl)OC(C)=O (stereo unspecified)
inactive: dose: 25.0 mg/kg/injection, schedule: Q04DX002 (ip), vehicle: Klucel (hydroxypropylcellulose) (HPC) 93 % of control | dose: 50.0 mg/kg/injection, schedule: Q04DX002 (ip), vehicle: Klucel (hydroxypropylcellulose) (HPC) 86 % of control | [12] 106 % of control and 89 % of control | [13] 97 % of control and 124 % of control | [14] 109 % of control

CCCNC(=O)Nc1ccc(OCC)cc1
inactive: [12] 105 % of control | [13] 115 % of control | [14] 105 % of control

C#CCOCC(CCl)OC(N)=O (stereo unspecified)
inactive: [15] 121 % of control | dose: 50.0 mg/kg/injection, schedule: Q04DX003 (ip), vehicle: saline with Tween-80 104 % of control | [16] 105 % of control | dose: 100.0 mg/kg/injection, schedule: Q04DX003 (ip), vehicle: saline with Tween-80 101 % of control | [17] 106 % of control | dose: 200.0 mg/kg/injection, schedule: Q04DX003 (ip), vehicle: saline with Tween-80 110 % of control

N=C(N)CCN
inactive: dose: 100.0 mg/kg/injection, schedule: Q01DX001 (ip), vehicle: saline 98 % of control | dose: 200.0 mg/kg/injection, schedule: Q01DX001 (ip), vehicle: saline 102 % of control

NCCCCCCN (tested in a mixture with another compound)
inactive: dose: 3.0 mg/kg/injection, schedule: Q01DX009 (ip), vehicle: acid diluted with saline 101 % of control | dose: 3.0 mg/kg/injection, schedule: Q04DX003 (ip), vehicle: acid diluted with saline 104 % of control | dose: 6.0 mg/kg/injection, schedule: Q01DX009 (ip), vehicle: acid diluted with saline 108 % of control | dose: 6.0 mg/kg/injection, schedule: Q04DX003 (ip), vehicle: acid diluted with saline 89 % of control | dose: 12.0 mg/kg/injection, schedule: Q04DX003 (ip), vehicle: acid diluted with saline 106 % of control

Nc1cccc(OCCCCOc2cccc(N)c2)c1
inactive: [15] 93 % of control | [16] 101 % of control | [17] 107 % of control

Cc1cc2c(cc1C)=NC(=Nc1nc(O)c(O)[nH]1)N=2
inactive: [1] 98 % of control | [2] 96 % of control | dose: 400.0 mg/kg/injection, schedule: Q04DX003 (ip), vehicle: Klucel (hydroxypropylcellulose) (HPC) 91 % of control

O=C1C(c2ccccc2)=C(N2CCCCC2)C(=O)C(c2ccccc2)=C1N1CCCCC1
inactive: [3] 90 % of control | [4] 90 % of control | [5] 94 % of control
